For 24 compounds, IC50 results are on record in patent US10316017B2, “COT modulators and methods of use thereof” (Gilead Sciences, Inc., priority 2015, dated 2019).

T1 sequence (P41279 30-397): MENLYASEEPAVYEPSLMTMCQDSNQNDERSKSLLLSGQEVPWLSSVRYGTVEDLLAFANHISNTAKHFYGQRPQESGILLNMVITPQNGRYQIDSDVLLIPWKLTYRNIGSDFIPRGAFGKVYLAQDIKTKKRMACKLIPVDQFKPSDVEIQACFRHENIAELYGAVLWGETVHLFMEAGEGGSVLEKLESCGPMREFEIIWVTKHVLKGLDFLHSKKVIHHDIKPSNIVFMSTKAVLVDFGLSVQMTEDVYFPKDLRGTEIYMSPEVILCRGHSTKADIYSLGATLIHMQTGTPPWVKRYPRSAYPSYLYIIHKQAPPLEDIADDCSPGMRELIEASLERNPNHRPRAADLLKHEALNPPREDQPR

This assay has as its target T1, human Cot catalytic domain (30-397 amino acids) (Homo sapiens, UniProt P41279).
T1 construct: Purified recombinant human Cot catalytic domain (30-397 amino acids) was purchased from Cama Biosciences; purchased Cama Biosciences (so in the source)
The assay is described as follows: High Throughput Cot Biochemical Assay (KinEASE TR-FRET). As to conditions: Cot KinEASE TR-FRET, 400 μM ATP; read-out: IC50 HTRF. An outline of the steps:
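First, purified human Cot (aa 30-397) at 5 nM phosphorylates an XL665-labeled STK3 peptide (1 μM) at 400 μM ATP, pH 7.0, 0.1% DMSO. Then a europium-conjugated phospho-specific antibody binds the product, giving the TR-FRET signal.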
(Time-resolved FRET reads energy transfer from a long-lived donor to a nearby acceptor.)
On to `N#Cc1cnc2c(Cl)cc(N[C@H](c3ccc(F)cc3)c3cn(C4CCNCC4)nn3)cc2c1Nc1ccc(F)c(Cl)c1` [Example 850, (R)-8-chloro-4-((3-chloro-4-fluorophenyl)amino)-6-(((4-fluorophenyl)(1-(piperidin-4-yl)-1H-1,2,3-triazol-4-yl)methyl)amino)quinoline-3-carbonitrile], for which the half-inhibitory concentration (IC50) stood at 0.926 µM. In the case of `N#Cc1cnc2c(Cl)cc(NC(c3ccc(Cl)cc3)c3cn(C4CCN(C(=O)OCc5ccccc5)CC4)nn3)cc2c1Nc1ccc(F)c(Cl)c1` (stereo not drawn) [Example 913, benzyl 4-(4-(((8-chloro-4-((3-chloro-4-fluorophenyl)amino)-3-cyanoquinolin-6-yl)amino)(4-chlorophenyl)methyl)-1H-1,2,3-triazol-1-yl)piperidine-1-carboxylate], the IC50 was greater than 1 µM. For the compound `CCN1CCC(n2cc(C(Nc3cc(Cl)c4ncc(C#N)c(Nc5ccc(F)c(Cl)c5)c4c3)c3ccc(F)cc3)nn2)CC1` (stereo not drawn) [Example 908, 8-chloro-4-((3-chloro-4-fluorophenyl)amino)-6-(((1-(1-ethylpiperidin-4-yl)-1H-1,2,3-triazol-4-yl)(4-fluorophenyl)methyl)amino) quinoline-3-carbonitrile], the concentration for half-maximal inhibition (IC50) was 0.005 µM. The value for `N#Cc1cnc2c(Cl)cc(N[C@H](c3ccc(Cl)cc3)c3cn(C4CCNCC4)nn3)cc2c1Nc1ccc(F)c(Cl)c1` [Example 857, (R)-8-chloro-4-((3-chloro-4-fluorophenyl)amino)-6-(((4-chlorophenyl)(1-(piperidin-4-yl)-1H-1,2,3-triazol-4-yl)methyl)amino)quinoline-3-carbonitrile] was 1.34 µM; that for `N#Cc1cnc2c(Cl)cc(N[C@@H](c3ccc(F)cc3)c3cn(C4CN5CCC4CC5)nn3)cc2c1Nc1ccc(F)c(Cl)c1` (stereo partly drawn) [Example 829, 8-chloro-4-((3-chloro-4-fluorophenyl)amino)-6-(((1S)-(4-fluorophenyl)(1-(quinuclidin-3-yl)-1H-1,2,3-triazol-4-yl)methyl)amino)quinoline-3-carbonitrile] was 0.006 µM. For `CCN1CCC(n2cc(C(Nc3cc(Cl)c4ncc(C#N)c(Nc5ccc(F)c(Cl)c5)c4c3)c3ccc(C)cc3)nn2)CC1` (stereo not drawn) [Example 917, 8-chloro-4-((3-chloro-4-fluorophenyl)amino)-6-(((1-(1-ethylpiperidin-4-yl)-1H-1,2,3-triazol-4-yl)(p-tolyl)methyl)amino)quinoline-3-carbonitrile] the value was 0.023 µM; for `CCN1CC[C@H](n2cc(C(Nc3cc(Cl)c4ncc(C#N)c(Nc5ccc(F)c(Cl)c5)c4c3)c3ccc(F)cc3)nn2)C1` (stereo partly drawn) [Example 877, 8-chloro-4-((3-chloro-4-fluorophenyl)amino)-6-(((1-((S)-1-ethylpyrrolidin-3-yl)-1H-1,2,3-triazol-4-yl)(4-fluorophenyl)methyl)amino) quinoline-3-carbonitrile], 0.047 µM. The value for `CCN1CC(n2cc(C(Nc3cc(Cl)c4ncc(C#N)c(Nc5ccc(F)c(Cl)c5)c4c3)c3ccc(F)cc3)nn2)C1` (stereo not drawn) [Example 870, 8-chloro-4-((3-chloro-4-fluorophenyl)amino)-6-(((1-(1-ethylazetidin-3-yl)-1H-1,2,3-triazol-4-yl)(4-fluorophenyl)methyl)amino) quinoline-3-carbonitrile] was 0.027 µM; that for `Cn1cc(C(Nc2cc(Cl)c3ncc(C#N)c(Nc4ccc(F)c(Cl)c4)c3c2)c2ccc(Cl)c(Cl)c2)nn1` (stereo not drawn) [Example 892, 8-chloro-4-((3-chloro-4-fluorophenyl)amino)-6-(((3,4-dichlorophenyl)(1-methyl-1H-1,2,3-triazol-4-yl)methyl)amino)quinoline-3-carbonitrile] was 0.078 µM; that for `CC(C)(C)N1CCC(n2cc([C@@H](Nc3cc(Cl)c4ncc(C#N)c(Nc5cccc(C(F)(F)F)c5)c4c3)c3ccc(Cl)cc3)nn2)CC1` [Example 762, (S)-6-(((1-(1-(tert-butyl)piperidin-4-yl)-1H-1,2,3-triazol-4-yl)(4-chlorophenyl)methyl)amino)-8-chloro-4-((3-(trifluoromethyl)phenyl)amino) quinoline-3-carbonitrile] was 0.513 µM. Consider `CN(c1ccc(F)c(Cl)c1)c1c(C#N)cnc2c(Cl)cc(N[C@@H](c3ccc(Cl)cc3)c3cn(C4CCN(C(C)(C)C)CC4)nn3)cc12` [Example 749, (S)-6-(((1-(1-(tert-butyl)piperidin-4-yl)-1H-1,2,3-triazol-4-yl)(4-chlorophenyl)methyl)amino)-8-chloro-4-((3-chloro-4-fluorophenyl)(methyl)amino) quinoline-3-carbonitrile], for which the IC50 worked out at 3.21 µM.

With `CCN1CCC(n2cc(C(Nc3cc(Cl)c4ncc(C#N)c(Nc5ccc(F)c(Cl)c5)c4c3)c3cccc(OC)c3)nn2)CC1` (stereo not drawn) [Example 904, 8-chloro-4-((3-chloro-4-fluorophenyl)amino)-6-(((1-(1-ethylpiperidin-4-yl)-1H-1,2,3-triazol-4-yl)(3-methoxyphenyl)methyl)amino) quinoline-3-carbonitrile], the IC50 came to 0.005 µM. `N#Cc1cnc2c(Cl)cc(NC(c3ccc(F)c(F)c3)c3cn(C4CCN(C(=O)OCc5ccccc5)CC4)nn3)cc2c1Nc1ccc(F)c(Cl)c1` (stereo not drawn) [Example 899, benzyl 4-(4-(((8-chloro-4-((3-chloro-4-fluorophenyl)amino)-3-cyanoquinolin-6-yl)amino)(3,4-difluorophenyl)methyl)-1H-1,2,3-triazol-1-yl)piperidine-1-carboxylate]: the IC50 was greater than 1 µM.

Turning to `CC1(C)C[C@H](n2cc([C@H](Nc3cc(Cl)c4ncc(C#N)c(Nc5ccc(F)c(Cl)c5)c4c3)c3ccccc3)nn2)CCN1` [Example 788, 8-chloro-4-((3-chloro-4-fluorophenyl)amino)-6-(((R)-(1-((R)-2,2-dimethylpiperidin-4-yl)-1H-1,2,3-triazol-4-yl)(phenyl)methyl)amino) quinoline-3-carbonitrile], the IC50 stood at 1.01 µM. For `N#Cc1cnc2c(Cl)cc(NC(c3ccc(F)cc3)c3cn(C4CCN(C(=O)OCc5ccccc5)CC4)nn3)cc2c1Nc1ccc(F)c(Cl)c1` (stereo not drawn) [Example 855, benzyl 4-(4-(((8-chloro-4-((3-chloro-4-fluorophenyl)amino)-3-cyanoquinolin-6-yl)amino)(4-fluorophenyl)methyl)-1H-1,2,3-triazol-1-yl)piperidine-1-carboxylate] the value was 2.4 µM; for `CC(C)(C)N1CCC(n2cc([C@@H](Nc3cc(Cl)c4ncc(C#N)c(Nc5ccc(F)c(Br)c5)c4c3)c3ccc(Cl)cc3)nn2)CC1` [Example 763, (S)-4-((3-bromo-4-fluorophenyl)amino)-6-(((1-(1-(tert-butyl)piperidin-4-yl)-1H-1,2,3-triazol-4-yl)(4-chlorophenyl)methyl)amino)-8-chloroquinoline-3-carbonitrile], 0.023 µM. With `CC(C)(C)N1CCC(n2cc([C@@H](Nc3cc(Cl)c4ncc(C#N)c(Nc5cccc(C(F)F)c5)c4c3)c3ccc(Cl)cc3)nn2)CC1` [Example 761, (S)-6-(((1-(1-(tert-butyl)piperidin-4-yl)-1H-1,2,3-triazol-4-yl)(4-chlorophenyl)methyl)amino)-8-chloro-4-((3-(difluoromethyl)phenyl)amino) quinoline-3-carbonitrile], the IC50 is 0.484 µM. Turning to `Cc1snnc1C(Nc1cc(Cl)c2ncc(C#N)c(Nc3ccc(F)c(Cl)c3)c2c1)c1ccc(F)cc1` (stereo not drawn) [Example 718, 8-chloro-4-((3-chloro-4-fluorophenyl)amino)-6-(((4-fluorophenyl)(5-methyl-1,2,3-thiadiazol-4-yl)methyl)amino)quinoline-3-carbonitrile], the IC50 came to 3.46 µM. For `N#Cc1cnc2c(Cl)cc(NC(c3ccc(F)cc3)c3cn([C@H]4CCN(C(=O)OCc5ccccc5)C4)nn3)cc2c1Nc1ccc(F)c(Cl)c1` (stereo partly drawn) [Example 876, benzyl (3S)-3-(4-(((8-chloro-4-((3-chloro-4-fluorophenyl)amino)-3-cyanoquinolin-6-yl)amino)(4-fluorophenyl)methyl)-1H-1,2,3-triazol-1-yl)pyrrolidine-1-carboxylate] the value was 0.385 µM; for `CN1CCC(n2cc([C@@H](Nc3cc(Cl)c4ncc(C#N)c(Nc5ccc(F)c(Cl)c5)c4c3)c3ccc(F)cc3)nn2)CC1` [Example 826, (S)-8-chloro-4-((3-chloro-4-fluorophenyl)amino)-6-(((4-fluorophenyl)(1-(1-methylpiperidin-4-yl)-1H-1,2,3-triazol-4-yl)methyl)amino)quinoline-3-carbonitrile], 0.006 µM.

Consider `N#Cc1cnc2c(Cl)cc(NC(c3cc(C(F)(F)F)cc(C(F)(F)F)c3)c3cn(C4CCNCC4)nn3)cc2c1Nc1ccc(F)c(Cl)c1` (stereo not drawn) [Example 874, 6-(((3,5-bis(trifluoromethyl)phenyl)(1-(piperidin-4-yl)-1H-1,2,3-triazo1-4-yl)methyl)amino)-8-chloro-4-((3-chloro-4-fluorophenyl)amino)quinoline-3-carbonitrile], for which the IC50 came out at 0.097 µM. The value for `COCc1cccc([C@H](Nc2cc(Cl)c3ncc(C#N)c(Nc4ccc(F)c(Cl)c4)c3c2)c2cn(C3CCN(C(C)(C)C)CC3)nn2)c1` [Compound 38] was 0.002 µM; that for `COc1cc2ncc(C#N)c(Nc3ccc(F)c(Cl)c3)c2cc1NC(c1ccc(F)cc1)c1cn(C)nn1` (stereo not drawn) [Example 798, 4-((3-chloro-4-fluorophenyl)amino)-6-(((4-fluorophenyl)(1-methyl-1H-1,2,3-triazol-4-yl)methyl)amino)-7-methoxyquinoline-3-carbonitrile] was 7.92 µM. For `CCN1CC(n2cc(C(Nc3cc(Cl)c4ncc(C#N)c(Nc5ccc(F)c(Cl)c5)c4c3)c3ccc(Cl)cc3)nn2)C1` (stereo not drawn) [Example 871, 8-chloro-4-((3-chloro-4-fluorophenyl)amino)-6-(((4-chlorophenyl)(1-(1-ethylazetidin-3-yl)-1H-1,2,3-triazol-4-yl)methyl)amino)quinoline-3-carbonitrile] the value was 0.09 µM.

Usually IC50 stands for the concentration that gives 50% inhibition.
